Laboratory results taken from patent US20240158392A1 (Janssen Biotech, Inc., priority 2021, published 2024).

Target: SIK2 (Homo sapiens, UniProt Q9H0K1)
Assay: SIK2 Enzymatic Assay Version 1 (ADP Glo)
Format: biochemical
Details: enzyme 0.6 nM, 160 μM ATP and 140 μM HDAC5tide (each 2× final concentration); 30 minutes pre-incubation, 4 hours; ADPGlo luminescence; read-out: SIK2 ADP Glo IC50 (μM) (Test Example 1)
Procedure: All steps were performed at room temperature. Compounds were pre-plated onto an assay plate using an Echo acoustic dispenser (Labcyte, E550 or E555) at 20 nL per well. Enzyme prepared in Assay Buffer at 0.6 nM (2× final concentration) was added at 2 μL per well using the Multidrop Combi (Thermo Fisher—used for all additions in this assay) to the assay plate, spun for 1 min at 800-850 rpm (Allegra 6KR Beckman Coulter centrifuge), and incubated with compound for 30 minutes.
One column of wells was dedicated to a no-peptide negative control (containing only ATP). ADPGlo Reagent (prepared and aliquoted as per manufacturer instructions) was then added at 2 μL per well, spun and incubated for 40 min. ADPGlo Detection (prepared and aliquoted as per manufacturer instructions) was added at 2 μL per well to the assay plate, which was spun and incubated for at least 30 min. The plate was then read on the Pherastar (BMG Labtech) using a luminescence read. Gain was set by the 0.1 mM concentration of ADP wells in the ADP/ATP standard curve plate generated as per manufacturer instructions.

SIK2, sequence (Q9H0K1 whole entry, species assumed): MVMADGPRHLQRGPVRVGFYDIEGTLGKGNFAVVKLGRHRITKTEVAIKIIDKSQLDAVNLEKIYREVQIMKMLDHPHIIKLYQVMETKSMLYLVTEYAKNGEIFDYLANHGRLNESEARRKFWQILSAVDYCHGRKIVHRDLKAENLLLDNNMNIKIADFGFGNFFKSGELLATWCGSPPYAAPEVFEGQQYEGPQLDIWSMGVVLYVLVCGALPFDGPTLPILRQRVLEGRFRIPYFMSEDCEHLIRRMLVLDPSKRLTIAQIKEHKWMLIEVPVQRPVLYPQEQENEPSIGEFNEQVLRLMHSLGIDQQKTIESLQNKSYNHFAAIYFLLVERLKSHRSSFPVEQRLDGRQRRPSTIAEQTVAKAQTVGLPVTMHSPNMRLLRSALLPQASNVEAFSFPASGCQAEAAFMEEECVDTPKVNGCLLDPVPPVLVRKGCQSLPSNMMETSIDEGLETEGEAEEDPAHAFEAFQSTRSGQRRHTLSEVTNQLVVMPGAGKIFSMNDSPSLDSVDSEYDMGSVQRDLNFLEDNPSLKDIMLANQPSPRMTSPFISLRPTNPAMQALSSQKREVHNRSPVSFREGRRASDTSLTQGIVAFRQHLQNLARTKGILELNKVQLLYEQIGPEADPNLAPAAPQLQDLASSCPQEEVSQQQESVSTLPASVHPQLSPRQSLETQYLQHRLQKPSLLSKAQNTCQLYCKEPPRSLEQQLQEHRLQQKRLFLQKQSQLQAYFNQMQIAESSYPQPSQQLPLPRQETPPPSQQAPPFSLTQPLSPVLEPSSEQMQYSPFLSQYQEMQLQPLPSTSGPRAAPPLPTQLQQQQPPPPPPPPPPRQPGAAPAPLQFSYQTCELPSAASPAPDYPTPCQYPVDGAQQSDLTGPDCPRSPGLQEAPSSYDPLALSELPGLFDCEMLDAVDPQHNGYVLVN

Row | Structure (SMILES) | IC50
1 | N#Cc1cc(-c2ccn3nc(NC(=O)C4CC4)cc3c2)c(N2CCC(O)(C(F)(F)F)C2)cn1 (racemic) [Example 87, (rac-)-N-[5-[2-cyano-5-[3-hydroxy-3-(trifluoromethyl)pyrrolidin-1-yl]-4-pyridyl]pyrazolo[1,5-a]pyridin-2-yl]cyclopropanecarboxamide] | 0.118 µM
2 | CN(C)CCNc1cnc(C#N)cc1-c1ccn2nc(NC(=O)C3CC3)cc2c1 [Example 2, N-[5-[2-cyano-5-(2-dimethylaminoethylamino)-4-pyridyl]pyrazolo[1,5-a]pyridin-2-yl]cyclopropanecarboxamide] | 0.0691 µM
3 | CC(C)(C)OC(=O)N1CC2(CC(Oc3cnc(C#N)cc3-c3ccn4nc(NC(=O)C5CC5)cc4c3)C2)C1 [Example 34, tert-butyl 2-[[6-cyano-4-[2-(cyclopropanecarbonylamino)pyrazolo[1,5-a]pyridin-5-yl]-3-pyridyl]oxy]-6-azaspiro[3.3]heptane-6-carboxylate] | 0.0227 µM
4 | Cc1cc(-c2ccn3nc(NC(=O)C4CC4)cc3c2)c(OC2CN(C(C)C)C2)cn1 [Example 142, N-[5-[5-(1-isopropylazetidin-3-yl)oxy-2-methyl-4-pyridyl]pyrazolo[1,5-a]pyridin-2-yl]cyclopropanecarboxamide] | 0.0448 µM
5 | CN(C)CC1CN(c2cnc(C#N)cc2-c2ccn3nc(NC(=O)C4CC4)cc3c2)C1 [Example 72, N-[5-[2-cyano-5-[3-(dimethylaminomethyl)azetidin-1-yl]-4-pyridyl]pyrazolo[1,5-a]pyridin-2-yl]cyclopropanecarboxamide] | 0.15 µM
6 | CN1CC2(C1)CN(c1cnc(C#N)cc1-c1ccn3nc(NC(=O)C4CC4)cc3c1)C2 [Example 91, N-[5-[2-cyano-5-(2-methyl-2,6-diazaspiro[3.3]heptan-6-yl)-4-pyridyl]pyrazolo[1,5-a]pyridin-2-yl]cyclopropanecarboxamide] | 0.0688 µM
7 | Cn1ccc(Nc2cnc(C#N)cc2-c2ccn3nc(NC(=O)C4CC4)cc3c2)n1 [Example 77, N-[5-[2-cyano-5-[(1-methylpyrazol-3-yl)amino]-4-pyridyl]pyrazolo[1,5-a]pyridin-2-yl]cyclopropanecarboxamide] | 0.242 µM
8 | CO[C@H]1C[C@@H](Oc2cnc(C)cc2-c2ccn3nc(NC(=O)C4CC4)cc3c2)C1 [Example 147, cis-N-[5-[5-(3-methoxycyclobutoxy)-2-methyl-4-pyridyl]pyrazolo[1,5-a]pyridin-2-yl]cyclopropanecarboxamide] | 0.0124 µM
9 | COc1ccc(C)cc1-c1ccn2nc(NC(=O)C3CC3)cc2c1 [Example 744, N-[5-(2-methoxy-5-methyl-phenyl)pyrazolo[1,5-a]pyridin-2-yl]cyclopropanecarboxamide] | 0.289 µM
10 | COc1cccc(C)c1-c1ccn2nc(NC(=O)C3CC3)cc2c1 [Example 746, N-[5-(2-methoxy-6-methyl-phenyl)pyrazolo[1,5-a]pyridin-2-yl]cyclopropanecarboxamide] | 0.271 µM
11 | N#Cc1cc(-c2ccn3nc(NC(=O)C4CC4)cc3c2)c(N2CC(CO)C2)cn1 [Example 3, N-[5-[2-cyano-5-[3-(hydroxymethyl)azetidin-1-yl]-4-pyridyl]pyrazolo[1,5-a]pyridin-2-yl]cyclopropanecarboxamide] | 0.0183 µM
12 | Cc1cc(-c2ccn3nc(NC(=O)C4CC4)cc3c2)c(O[C@@H]2C[C@H]3CC[C@@H](C2)N3C)cn1 [Example 140, N-(5-(2-methyl-5-(((1R,3r,5S)-8-methyl-8-azabicyclo[3.2.1]octan-3-yl)oxy)pyridin-4-yl)pyrazolo[1,5-a]pyridin-2-yl)cyclopropanecarboxamide] | 0.0195 µM
13 | Cc1cc(-c2ccn3nc(NC(=O)C4CC4)cc3c2)c(OC[C@@H](N)C(C)(C)C)cn1 [Example 149, N-[5-[5-[(2S)-2-amino-3,3-dimethyl-butoxy]-2-methyl-4-pyridyl]pyrazolo[1,5-a]pyridin-2-yl]cyclopropanecarboxamide] | 0.0122 µM
14 | CN1CC2CN(c3cnc(C#N)cc3-c3ccn4nc(NC(=O)C5CC5)cc4c3)CC2C1 (stereo not drawn) [Example 90, N-[5-[2-cyano-5-(2-methyl-1,3,3a,4,6,6a-hexahydropyrrolo[3,4-c]pyrrol-5-yl)-4-pyridyl]pyrazolo[1,5-a]pyridin-2-yl]cyclopropanecarboxamide] | 0.0134 µM
15 | N#Cc1cc(-c2ccn3nc(NC(=O)C4CC4)cc3c2)c(N2CC(O)(C(F)(F)F)C2)cn1 [Example 75, N-[5-[2-cyano-5-[3-hydroxy-3-(trifluoromethyl)azetidin-1-yl]-4-pyridyl]pyrazolo[1,5-a]pyridin-2-yl]cyclopropanecarboxamide] | 0.398 µM
16 | Cc1cc(-c2ccn3nc(Nc4ccc(C(=O)NC5CC5)c(F)c4)cc3c2)c(OCC(C)(C)O)cn1 [Example 615, N-cyclopropyl-2-fluoro-4-[[5-[5-(2-hydroxy-2-methyl-propoxy)-2-methyl-4-pyridyl]pyrazolo[1,5-a]pyridin-2-yl]amino]benzamide] | 0.0117 µM
17 | COc1cccnc1-c1ccn2nc(NC(=O)C3CC3)cc2c1 [Example 750, N-[5-(3-methoxy-2-pyridyl)pyrazolo[1,5-a]pyridin-2-yl]cyclopropanecarboxamide] | 0.45 µM
18 | CCN1CC(Oc2cnc(C)cc2-c2ccn3nc(NC(=O)C4CC4)cc3c2)C1 [Example 141, N-[5-[5-(1-ethylazetidin-3-yl)oxy-2-methyl-4-pyridyl]pyrazolo[1,5-a]pyridin-2-yl]cyclopropanecarboxamide] | 0.0138 µM

Second part, the compound after the results:

Row | IC50 | Structure (SMILES)
19 | 0.00158 µM | N#Cc1cc(-c2ccn3nc(NC(=O)C4CC4)cc3c2)c(O[C@H]2C[C@H]3C[C@@H]2CN3)cn1 (single isomer, unassigned) [Example 18, N-[5-[5-[[(1*R,4*R,5*S)-2-azabicyclo[2.2.1]heptan-5-yl]oxy]-2-cyano-4-pyridyl]pyrazolo[1,5-a]pyridin-2-yl]cyclopropanecarboxamide]
20 | 0.0703 µM | N#Cc1cc(-c2ccn3nc(NC(=O)C4CC4)cc3c2)c(NC2CC2)cn1 [Example 80, N-[5-[2-cyano-5-(cyclopropylamino)-4-pyridyl]pyrazolo[1,5-a]pyridin-2-yl]cyclopropanecarboxamide]
21 | 0.0249 µM | N#Cc1cc(-c2ccn3nc(NC(=O)C4CC4)cc3c2)c(O[C@H]2CCN[C@@H](C(F)(F)F)C2)cn1 (single isomer, unassigned) [Example 14, N-(5-(2-cyano-5-(((2*R,4*S)-2-(trifluoromethyl)piperidin-4-yl)oxy)pyridin-4-yl)pyrazolo[1,5-a]pyridin-2-yl)cyclopropanecarboxamide]
22 | 0.0255 µM | N#Cc1cc(-c2ccn3nc(NC(=O)C4CC4)cc3c2)c(NCC2CC2)cn1 [Example 76, N-[5-[2-cyano-5-(cyclopropylmethylamino)-4-pyridyl]pyrazolo[1,5-a]pyridin-2-yl]cyclopropanecarboxamide]
23 | 0.0143 µM | N#Cc1cc(-c2ccn3nc(NC(=O)C4CC4)cc3c2)c(NC2CCCC2)cn1 [Example 78, N-[5-[2-cyano-5-(cyclopentylamino)-4-pyridyl]pyrazolo[1,5-a]pyridin-2-yl]cyclopropanecarboxamide]
24 | 0.00145 µM | N#Cc1cc(-c2ccn3nc(NC(=O)C4CC4)cc3c2)c(O[C@@H]2CCN(C3CC3)C2)cn1 [Example 25, N-[5-[2-cyano-5-[(3R)-1-cyclopropylpyrrolidin-3-yl]oxy-4-pyridyl]pyrazolo[1,5-a]pyridin-2-yl]cyclopropanecarboxamide]
25 | 0.00922 µM | CN1C[C@@H](Oc2cnc(C#N)cc2-c2ccn3nc(NC(=O)C4CC4)cc3c2)C[C@@H](C(F)(F)F)C1 [Example 28, N-[5-[2-cyano-5-[[(3S,5R)-1-methyl-5-(trifluoromethyl)-3-piperidyl]oxy]-4-pyridyl]pyrazolo[1,5-a]pyridin-2-yl]cyclopropanecarboxamide]
26 | 0.014 µM | N#Cc1cc(-c2ccn3nc(NC(=O)C4CC4)cc3c2)c(O[C@H]2CNCCOC2)cn1 [Example 84, N-[5-[2-cyano-5-[[(6S)-1,4-oxazepan-6-yl]oxy]-4-pyridyl]pyrazolo[1,5-a]pyridin-2-yl]cyclopropanecarboxamide]
27 | 0.0133 µM | CN1CCOC[C@H](Oc2cnc(C#N)cc2-c2ccn3nc(NC(=O)C4CC4)cc3c2)C1 [Example 12, N-[5-[2-cyano-5-[[(6R)-4-methyl-1,4-oxazepan-6-yl]oxy]-4-pyridyl]pyrazolo[1,5-a]pyridin-2-yl]cyclopropanecarboxamide]
28 | 0.0213 µM | N#Cc1cc(-c2ccn3nc(NC(=O)C4CC4)cc3c2)c(O[C@@H]2CNCCOC2)cn1 [Example 21, N-[5-[2-cyano-5-[[(6R)-1,4-oxazepan-6-yl]oxy]-4-pyridyl]pyrazolo[1,5-a]pyridin-2-yl]cyclopropanecarboxamide]
29 | 0.00121 µM | N#Cc1cc(-c2ccn3nc(NC(=O)C4CC4)cc3c2)c(OC[C@@H]2CC[C@@H](N)C2)cn1 [Example 22, N-[5-[5-[[(1R,3R)-3-aminocyclopentyl]methoxy]-2-cyano-4-pyridyl]pyrazolo[1,5-a]pyridin-2-yl]cyclopropanecarboxamide]
30 | 0.152 µM | N#Cc1cc(-c2ccn3nc(NC(=O)C4CC4)cc3c2)c(OC2(C(F)(F)F)CCNCC2)cn1 [Example 9, N-(5-(2-cyano-5-((4-(trifluoromethyl)piperidin-4-yl)oxy)pyridin-4-yl)pyrazolo[1,5-a]pyridin-2-yl)cyclopropanecarboxamide]
